Data as given in US8481546B2, “CGRP receptor antagonist” (Bristol-Myers Squibb Company, priority 2010, dated 2013).
Read-outs that look alike come from different tables or passages of the source.

Experiments:
[1] = Intravenous exposure in rats (reference for bioavailability); conditions: rat, in vivo, intravenous administration of 1 mg/kg, read-out: AUC0-24 h
[2] = test system: CGRP-induced dilation of ex vivo human intracranial arteries; assay: Schild analysis: inhibition of CGRP concentration-response curve in ex vivo human intracranial artery
Description: To assess functional antagonism against a range of CGRP concentrations, Compound I is pre-incubated with individual artery rings in the tissue bath and then a CGRP concentration-response curve is generated to achieve complete dilation (using multiple agonist and multiple antagonist doses). Higher concentrations of antagonist produce a ‘right-shift’ in the CGRP concentration-response curve, requiring greater concentrations of agonist to overcome the presence of antagonist and achieve full dilation. In short, wire mounted artery rings are pre-incubated with antagonist, then contracted with KCl (to mimic endogenous tone), and followed by addition of increasing concentrations of CGRP to achieve full relaxation.
Each wire mounted artery ring is pre-incubated for 30 min with a single concentration (0.1-30 nM) of the antagonist Compound I, then contracted with 10 mM KCl (to mimic endogenous tone), followed by addition of increasing concentrations of CGRP to achieve full relaxation. The KCl contraction is allowed to stabilize, such that total antagonist pretreatment time is approximately 45 min prior to application of CGRP.

[3] = One-week comparative intranasal irritation study in rats: toxicokinetics; conditions: male, rat, in vivo; for Cmax / Tmax / AUC(0-t) / half-life: inhaled or intranasal; for concentration at 24 h: other: intranasal instillation
Description: This study was conducted to compare potential nasal irritation of Compound I to Compound III when given intranasally to male rats for 1 week. Male rats (10/group) were instilled intranasally with Compound I or Compound III solutions ([…] in 225 mM succinic acid, 0.02% benzalkonium chloride, 1.25% anhydrous dextrose, pH 5.8-6.2) once daily at a dose volume of 100 μL/nostril. Using this dosing paradigm, fixed doses of 5, 15 or 35 mg of test article were delivered daily. As a consequence, dosages normalized to body weight decreased with time as the rats grew. One control group was given succinate vehicle and a sham control group was given saline by intranasal instillation. Parameters evaluated included clinical observations, body weight, food consumption, toxicokinetics, and histological evaluation of nasal tissues.

[4] = Pharmacokinetics in the rabbit after IV and IN administration; assay type: in vivo, New Zealand White rabbits
Description: The feasibility of nasal delivery was assessed in the IN rabbit model by comparing the plasma concentration-time profiles and pharmacokinetic parameters (Cmax, Tmax, AUC and bioavailability) for nasally delivered Compound I to that delivered by the IV route. The dosing solution concentration and delivery volume are included in the data tables for each study. Vehicle compositions are described in the footnotes below the table.
Groups of three male New Zealand White rabbits, ranging in weight from 3-3.5 kg, received a single dose of drug in one of the following treatments: 0.5 mg/kg IV bolus injection over 30 seconds, or 0.3-3 mg/kg IN administered with a syringe microsprayer. Prior to IN dosing, rabbits were lightly sedated to effect with the inhalant anesthetic, Sevoflurane. The rabbits regained consciousness in 2-5 min. Serial blood samples were collected in heparin-containing vacutainers at predose, 2, 5, 10, 15, 30 min and 1, 2, 4, 6, and 24 hours post-dose. Blood samples were immediately centrifuged at 4° C. and the separated plasma stored at −80° C. until further analysis by the LC/MS/MS assay.

[5] = 5 mg, intranasal 5 mg (0.357 mg/cm^2) once daily, Day 0
[6] = 5 mg, intranasal 5 mg (0.357 mg/cm^2) once daily, Day 6
[7] = 15 mg, intranasal 15 mg (1.07 mg/cm^2) once daily, Day 0
[8] = 15 mg, intranasal 15 mg (1.07 mg/cm^2) once daily, Day 6
[9] = 35 mg, intranasal 35 mg (2.50 mg/cm^2) once daily, Day 0
[10] = 35 mg, intranasal 35 mg (2.50 mg/cm^2) once daily, Day 6
[11] = male, New Zealand White, plasma, IV 0.5 mg/kg

Cc1cc(C[C@@H](NC(=O)N2CCC(c3cc4ccccc4[nH]c3=O)CC2)C(=O)N2CCN(C3CCN(C)CC3)CC2)cc2cn[nH]c12 [Compound I, (R)—N-(3-(7-methyl-1H-indazol-5-yl)-1-(4-(1-methylpiperidin-4-yl)piperazin-1-yl)-1-oxopropan-2-yl)-4-(2-oxo-1,2-dihydroquinolin-3-yl)piperidine-1-carboxamide]
AUC(0-t) [1]: 7.7 µM·h
Kb [2]: 91 pM
Cmax [3, 5]: 330 nM
Tmax [3, 5]: 0.5 h
AUC(0-t) ([3]; 5 mg, intranasal 5 mg (0.357 mg/cm^2) once daily, Day 0, read-out: Composite AUC0-24 h): 1.6 µM·h
half-life ([3]; 5 mg, intranasal 5 mg (0.357 mg/cm^2) once daily, Day 0, read-out: Mean T1/2 (converted)): 7.1 h
Cmax [3, 6]: 660 nM
Tmax [3, 6]: 1 h
AUC(0-t) ([3]; 5 mg, intranasal 5 mg (0.357 mg/cm^2) once daily, Day 6, read-out: Composite AUC0-24 h): 2.6 µM·h
half-life ([3]; 5 mg, intranasal 5 mg (0.357 mg/cm^2) once daily, Day 6, read-out: Mean T1/2 (converted)): 5.6 h
Cmax [3, 7]: 2200 nM
Tmax [3, 7]: 1 h
AUC(0-t) ([3]; 15 mg, intranasal 15 mg (1.07 mg/cm^2) once daily, Day 0, read-out: Composite AUC0-24 h): 4.6 µM·h
half-life ([3]; 15 mg, intranasal 15 mg (1.07 mg/cm^2) once daily, Day 0, read-out: Mean T1/2 (converted)): 5.1 h
Cmax [3, 8]: 830 nM
Tmax [3, 8]: 0.5 h
AUC(0-t) ([3]; 15 mg, intranasal 15 mg (1.07 mg/cm^2) once daily, Day 6, read-out: Composite AUC0-24 h): 5.2 µM·h
half-life ([3]; 15 mg, intranasal 15 mg (1.07 mg/cm^2) once daily, Day 6, read-out: Mean T1/2 (converted)): 6.7 h
Cmax [3, 9]: 1500 nM
Tmax [3, 9]: 2 h
AUC(0-t) ([3]; 35 mg, intranasal 35 mg (2.50 mg/cm^2) once daily, Day 0, read-out: Composite AUC0-24 h): 7.9 µM·h
Cmax [3, 10]: 1200 nM
Tmax [3, 10]: 1 h
AUC(0-t) ([3]; 35 mg, intranasal 35 mg (2.50 mg/cm^2) once daily, Day 6, read-out: Composite AUC0-24 h): 5.4 µM·h
half-life ([3]; 35 mg, intranasal 35 mg (2.50 mg/cm^2) once daily, Day 6, read-out: Mean T1/2 (converted)): 6 h
concentration at 24 h ([3]; 5 mg, intranasal 5 mg (0.357 mg/cm^2) once daily, Day 0, read-out: Mean C24 h): 22 nM
concentration at 24 h ([3]; 5 mg, intranasal 5 mg (0.357 mg/cm^2) once daily, Day 6, read-out: Mean C24 h): 15 nM
concentration at 24 h ([3]; 15 mg, intranasal 15 mg (1.07 mg/cm^2) once daily, Day 0, read-out: Mean C24 h): 17 nM
concentration at 24 h ([3]; 15 mg, intranasal 15 mg (1.07 mg/cm^2) once daily, Day 6, read-out: Mean C24 h): 59 nM
concentration at 24 h ([3]; 35 mg, intranasal 35 mg (2.50 mg/cm^2) once daily, Day 0, read-out: Mean C24 h): 120 nM
concentration at 24 h ([3]; 35 mg, intranasal 35 mg (2.50 mg/cm^2) once daily, Day 6, read-out: Mean C24 h): 36 nM
time drug was detected in plasma post-dose ([4]; IN): at least 6 h
time drug was detected in plasma post-dose ([4]; IN, high dose): up to 24 hr
Plasma levels ([4]; IN, measured within 5 min): > 10 nM
MRT [4, 11]: 0.38 ± 0.15 h
clearance [4, 11]: 7.9 ± 3 mL/min/kg
half-life [4, 11]: 1.3 ± 0.26 h
AUC ([4]; male, New Zealand White, plasma, IV 0.5 mg/kg, n = 3, Mean ± SD): 1.8 ± 0.58 µM·h
Vd ([4]; male, New Zealand White, plasma, IV 0.5 mg/kg, read-out: Vss): 0.16 ± 0.01 L/kg
Cmax ([4]; male, New Zealand White, plasma, inhaled or intranasal, 0.3 mg/kg, IN low dose 0.3 mg/kg (10 mg/ml), n = 3, Mean ± SD): 120 nM
bioavailability ([4]; male, New Zealand White, plasma, inhaled or intranasal, 0.3 mg/kg, IN low dose 0.3 mg/kg, read-out: Bioavailability (F %)): 12.5 ± 6.56%
Cmax ([4]; male, New Zealand White, plasma, inhaled or intranasal, 1 mg/kg, IN mid-dose 1.0 mg/kg (30 mg/ml), n = 3, Mean ± SD): 550 ± 260 nM
bioavailability ([4]; male, New Zealand White, plasma, inhaled or intranasal, 1 mg/kg, IN mid-dose 1.0 mg/kg, read-out: Bioavailability (F %)): 18.8 ± 8.96%
Cmax ([4]; male, New Zealand White, plasma, inhaled or intranasal, 3 mg/kg, IN high dose 3.0 mg/kg (100 mg/ml), n = 3, Mean ± SD): 2030 ± 1000 nM
bioavailability ([4]; male, New Zealand White, plasma, inhaled or intranasal, 3 mg/kg, IN high dose 3.0 mg/kg, read-out: Bioavailability (F %)): 30.2 ± 10.8%
Cmax ([4]; male, New Zealand White, plasma, inhaled or intranasal, 3 mg/kg, IN, range over 0.3, 1, and 3 mg/kg): 120 to 2000 nM
bioavailability ([4]; male, New Zealand White, plasma, inhaled or intranasal, 3 mg/kg, IN, range over 0.3, 1, and 3 mg/kg, read-out: absolute bioavailability): 13 to 30%
AUC ([4]; male, New Zealand White, plasma, inhaled or intranasal, IN high dose 3.0 mg/kg (100 mg/ml), n = 3, Mean ± SD): 3.27 ± 1.17 µM·h
Tmax ([4]; male, New Zealand White, plasma, inhaled or intranasal, IN high dose 3.0 mg/kg, read-out: Tmax): 0.33 h
AUC ([4]; male, New Zealand White, plasma, inhaled or intranasal, IN low dose 0.3 mg/kg (10 mg/ml), n = 3, Mean ± SD): 0.14 ± 0.07 µM·h
Tmax ([4]; male, New Zealand White, plasma, inhaled or intranasal, IN low dose 0.3 mg/kg, read-out: Tmax): 0.25 h
AUC ([4]; male, New Zealand White, plasma, inhaled or intranasal, IN mid-dose 1.0 mg/kg (30 mg/ml), n = 3, Mean ± SD): 0.69 ± 0.33 µM·h
Tmax ([4]; male, New Zealand White, plasma, inhaled or intranasal, IN mid-dose 1.0 mg/kg, read-out: Tmax): 0.25 h
Tmax ([4]; male, New Zealand White, plasma, inhaled or intranasal, IN, all doses studied, read-out: time to reach peak concentrations (Tmax)): 0.2 to 0.3 h
Cmax ([4]; male, New Zealand White, plasma, iv, 0.5 mg/kg, IV 0.5 mg/kg, n = 3, Mean ± SD): 13700 ± 1800 nM
